Data reported in paper PMC5362750, “Discovery of Potent, Selective, and Orally Bioavailable Small-Molecule Modulators of the Mediator Complex-Associated Kinases CDK8 and CDK19” (Journal of Medicinal Chemistry, 2016).

How the values were obtained:
[1] = molecular target: ABL (Q252H) (Homo sapiens, UniProt P00519, Q252H); settings: 1 µM, ATP at Km
[2] = molecular target: glucagon (h) (Homo sapiens, UniProt P47871); assay: biochemical; settings: read-out: % Inhibition of Control Specific Binding
[3] = system: Ca2+ channel (L, dihydropyridine site); settings: 10 µM, antagonist radioligand
[4] = molecular target: EGFR(L861Q) (Homo sapiens, UniProt P00533, L861Q); settings: 1 µM, ATP at Km
[5] = molecular target: T1, DCAMKL2 (Homo sapiens, UniProt Q8N568); assay: Kinase panel (Millipore); format: biochemical; settings: 1 µM, ATP at Km
T1 construct: purchased Millipore (KinaseProfiler) kinase panel
T1 sequence (Q8N568 whole entry): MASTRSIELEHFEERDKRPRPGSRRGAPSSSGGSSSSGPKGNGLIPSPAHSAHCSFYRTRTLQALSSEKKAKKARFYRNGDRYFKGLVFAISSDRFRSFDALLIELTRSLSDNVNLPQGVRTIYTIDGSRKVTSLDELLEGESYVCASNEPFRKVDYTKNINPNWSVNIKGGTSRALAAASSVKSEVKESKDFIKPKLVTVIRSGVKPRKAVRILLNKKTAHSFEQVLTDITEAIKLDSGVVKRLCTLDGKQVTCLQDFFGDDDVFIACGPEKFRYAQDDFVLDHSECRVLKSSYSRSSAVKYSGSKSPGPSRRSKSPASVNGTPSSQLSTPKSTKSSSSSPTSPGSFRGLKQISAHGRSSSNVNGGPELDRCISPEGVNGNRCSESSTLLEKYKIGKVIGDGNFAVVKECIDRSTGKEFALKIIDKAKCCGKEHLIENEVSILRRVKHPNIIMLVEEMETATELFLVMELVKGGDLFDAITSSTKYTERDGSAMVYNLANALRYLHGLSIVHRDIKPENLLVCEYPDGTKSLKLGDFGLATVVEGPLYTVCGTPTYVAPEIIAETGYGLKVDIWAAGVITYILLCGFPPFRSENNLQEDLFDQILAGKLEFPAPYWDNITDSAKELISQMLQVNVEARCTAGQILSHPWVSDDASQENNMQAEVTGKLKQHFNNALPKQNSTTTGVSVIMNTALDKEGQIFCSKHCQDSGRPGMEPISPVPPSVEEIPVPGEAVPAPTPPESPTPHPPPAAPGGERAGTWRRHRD

[6] = molecular target: CK1GAMMA3 (Homo sapiens, UniProt Q9Y6M4); assay: Kinase panel (Millipore); format: biochemical; settings: 1 µM, ATP at Km
[7] = molecular target: T2, PAF (h) (Homo sapiens, UniProt P25105); assay: CEREP binding assay; settings: agonist radioligand, read-out: % Inhibition of Control Specific Binding
T2 construct: purchased Millipore (KinaseProfiler) kinase panel

[8] = molecular target: EPHA2 (Homo sapiens, UniProt P29317); assay: Kinase panel (Millipore); format: biochemical; settings: 1 µM, ATP at Km
[9] = in vivo; settings: male, rat, 0.2 mg/kg
[10] = system: STAT1^SER727 phosphorylation; settings: 30 mg/kg q.d. oral
[11] = system: AR (h); settings: 10 µM, agonist radioligand
[12] = In vivo mouse PK; settings: female, NMRI, plasma, iv, 0.2 mg/kg
[13] = molecular target: 5-HT2A (h) (Homo sapiens, UniProt P28223); assay: biochemical; settings: read-out: % Inhibition of Control Specific Binding
[14] = molecular target: NEK2 (Homo sapiens, UniProt P51955); assay: Kinase panel (Millipore); format: biochemical; settings: 1 µM, ATP at Km
NEK2, sequence (P51955 whole entry): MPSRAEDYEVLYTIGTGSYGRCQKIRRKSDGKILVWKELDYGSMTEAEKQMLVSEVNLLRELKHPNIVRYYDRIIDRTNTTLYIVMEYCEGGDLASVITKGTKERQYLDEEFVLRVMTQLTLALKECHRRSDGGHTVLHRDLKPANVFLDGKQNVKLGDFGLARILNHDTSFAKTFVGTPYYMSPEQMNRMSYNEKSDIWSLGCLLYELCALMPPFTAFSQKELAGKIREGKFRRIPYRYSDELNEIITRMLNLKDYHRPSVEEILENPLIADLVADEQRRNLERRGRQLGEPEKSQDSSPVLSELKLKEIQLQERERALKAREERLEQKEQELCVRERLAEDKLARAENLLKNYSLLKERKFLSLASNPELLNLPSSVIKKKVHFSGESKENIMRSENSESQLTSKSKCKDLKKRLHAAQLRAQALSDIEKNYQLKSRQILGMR

[15] = molecular target: T3, TLK2 (Homo sapiens, UniProt Q86UE8); assay: Kinase panel (Millipore); format: biochemical; settings: 1 µM, ATP at Km
T3 construct: purchased Millipore (KinaseProfiler) kinase panel

[16] = molecular target: CDK2/CYCLINE (Homo sapiens, UniProt P24941); settings: 1 µM, ATP at Km
[17] = molecular target: T4, SIK (Homo sapiens, UniProt P57059); assay: Kinase panel (Millipore); format: biochemical; settings: 1 µM, ATP at Km
T4 construct: purchased Millipore (KinaseProfiler) kinase panel

[18] = molecular target: T5, H4 (h) (Homo sapiens, UniProt Q9H3N8); assay: CEREP binding assay; settings: agonist radioligand, read-out: % Inhibition of Control Specific Binding
T5 construct: purchased Millipore (KinaseProfiler) kinase panel

[19] = in vivo; settings: female, NMRI, mouse, po, 0.5 mg/kg
[20] = molecular target: T6, PYK2 (Homo sapiens, UniProt Q14289); assay: Kinase panel (Millipore); format: biochemical; settings: 1 µM, ATP at Km
T6 construct: purchased Millipore (KinaseProfiler) kinase panel
T6 sequence (Q14289 whole entry): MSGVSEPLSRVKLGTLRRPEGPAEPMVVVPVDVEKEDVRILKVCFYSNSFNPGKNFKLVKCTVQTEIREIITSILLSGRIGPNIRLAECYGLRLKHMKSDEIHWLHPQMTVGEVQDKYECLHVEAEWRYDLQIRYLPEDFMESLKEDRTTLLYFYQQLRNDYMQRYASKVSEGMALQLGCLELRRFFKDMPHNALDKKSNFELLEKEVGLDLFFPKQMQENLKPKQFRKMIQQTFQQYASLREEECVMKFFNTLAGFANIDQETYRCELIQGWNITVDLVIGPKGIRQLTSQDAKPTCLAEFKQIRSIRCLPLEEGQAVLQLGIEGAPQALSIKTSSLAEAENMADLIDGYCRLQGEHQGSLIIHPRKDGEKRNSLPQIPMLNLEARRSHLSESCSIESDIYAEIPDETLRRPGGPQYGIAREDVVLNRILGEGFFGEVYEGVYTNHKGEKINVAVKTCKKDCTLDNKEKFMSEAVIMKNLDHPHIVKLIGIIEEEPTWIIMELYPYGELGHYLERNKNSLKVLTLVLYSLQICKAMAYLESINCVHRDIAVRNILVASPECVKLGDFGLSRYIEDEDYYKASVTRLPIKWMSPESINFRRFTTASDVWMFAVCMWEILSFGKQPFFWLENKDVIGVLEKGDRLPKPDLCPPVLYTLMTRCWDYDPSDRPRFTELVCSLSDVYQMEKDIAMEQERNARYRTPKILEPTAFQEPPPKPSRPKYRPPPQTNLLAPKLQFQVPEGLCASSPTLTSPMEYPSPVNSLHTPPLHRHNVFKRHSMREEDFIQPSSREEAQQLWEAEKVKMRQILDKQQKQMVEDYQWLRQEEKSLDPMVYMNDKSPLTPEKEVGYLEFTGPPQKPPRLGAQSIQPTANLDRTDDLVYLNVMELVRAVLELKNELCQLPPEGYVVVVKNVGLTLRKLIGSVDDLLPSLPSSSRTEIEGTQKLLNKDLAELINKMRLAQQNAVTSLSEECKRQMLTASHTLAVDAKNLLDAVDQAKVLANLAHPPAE

[21] = molecular target: T7, EPHA4 (Homo sapiens, UniProt P54764); assay: Kinase panel (Millipore); format: biochemical; settings: 1 µM, ATP at Km
T7 construct: purchased Millipore (KinaseProfiler) kinase panel

[22] = system: PCP; settings: 10 µM, antagonist radioligand
[23] = in vivo; settings: female, dog, 0.2 mg/kg
[24] = molecular target: T8, ULK3 (Homo sapiens, UniProt Q6PHR2); assay: Kinase panel (Millipore); format: biochemical; settings: 1 µM, ATP at Km
T8 construct: purchased Millipore (KinaseProfiler) kinase panel
T8 sequence (Q6PHR2 whole entry): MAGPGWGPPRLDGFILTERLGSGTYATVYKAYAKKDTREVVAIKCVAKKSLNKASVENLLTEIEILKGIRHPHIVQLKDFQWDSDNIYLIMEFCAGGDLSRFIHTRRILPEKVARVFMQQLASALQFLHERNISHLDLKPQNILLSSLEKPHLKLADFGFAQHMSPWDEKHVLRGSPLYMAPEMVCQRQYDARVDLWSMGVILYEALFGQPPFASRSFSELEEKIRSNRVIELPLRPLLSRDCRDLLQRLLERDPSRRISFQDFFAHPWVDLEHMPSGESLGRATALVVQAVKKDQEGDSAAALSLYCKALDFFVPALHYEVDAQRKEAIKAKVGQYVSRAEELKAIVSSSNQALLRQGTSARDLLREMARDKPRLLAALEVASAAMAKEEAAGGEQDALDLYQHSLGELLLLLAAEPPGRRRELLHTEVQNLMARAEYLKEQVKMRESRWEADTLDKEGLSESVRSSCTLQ

[25] = molecular target: T9, RSE (Homo sapiens, UniProt Q06418); assay: Kinase panel (Millipore); format: biochemical; settings: 1 µM, ATP at Km
T9 construct: purchased Millipore (KinaseProfiler) kinase panel

[26] = molecular target: T10, PKCEPSILON (Homo sapiens, UniProt Q02156); assay: Kinase panel (Millipore); format: biochemical; settings: 1 µM, ATP at Km
T10 construct: purchased Millipore (KinaseProfiler) kinase panel
T10 sequence (Q02156 whole entry): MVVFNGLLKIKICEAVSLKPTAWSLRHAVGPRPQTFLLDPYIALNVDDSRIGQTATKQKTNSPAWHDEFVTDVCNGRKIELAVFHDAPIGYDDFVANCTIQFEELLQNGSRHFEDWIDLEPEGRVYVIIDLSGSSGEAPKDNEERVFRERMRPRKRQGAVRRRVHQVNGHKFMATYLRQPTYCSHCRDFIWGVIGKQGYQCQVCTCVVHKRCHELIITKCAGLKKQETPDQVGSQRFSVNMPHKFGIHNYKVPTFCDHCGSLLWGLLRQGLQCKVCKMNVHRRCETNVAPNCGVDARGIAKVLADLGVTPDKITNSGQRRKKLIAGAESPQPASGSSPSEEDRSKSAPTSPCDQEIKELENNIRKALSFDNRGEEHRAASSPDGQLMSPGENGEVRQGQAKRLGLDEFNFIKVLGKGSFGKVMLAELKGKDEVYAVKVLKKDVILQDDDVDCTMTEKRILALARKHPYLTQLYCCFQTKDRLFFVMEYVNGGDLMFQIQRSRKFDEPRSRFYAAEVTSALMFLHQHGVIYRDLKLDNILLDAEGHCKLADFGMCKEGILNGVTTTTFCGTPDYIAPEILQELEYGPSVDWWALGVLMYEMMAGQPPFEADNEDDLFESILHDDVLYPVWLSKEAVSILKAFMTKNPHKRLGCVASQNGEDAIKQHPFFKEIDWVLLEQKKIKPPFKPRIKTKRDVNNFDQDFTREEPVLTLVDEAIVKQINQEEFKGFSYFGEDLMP

[27] = molecular target: PIM-3 (Homo sapiens, UniProt Q86V86); assay: Kinase panel (Millipore); format: biochemical; settings: 1 µM, ATP at Km
[28] = molecular target: FGFR1(V561M) (Homo sapiens, UniProt P11362, V561M); settings: 1 µM, ATP at Km
[29] = molecular target: AURKA (Homo sapiens, UniProt O14965); assay: Kinase panel (Millipore); format: biochemical; settings: 1 µM, ATP at Km
[30] = molecular target: D3 (h) (Homo sapiens, UniProt P35462); assay: biochemical; settings: read-out: % Inhibition of Control Specific Binding
[31] = molecular target: T11, EPHA3 (Homo sapiens, UniProt P29320); assay: Kinase panel (Millipore); format: biochemical; settings: 1 µM, ATP at Km
T11 construct: purchased Millipore (KinaseProfiler) kinase panel

[32] = molecular target: T12, TRKB (Homo sapiens, UniProt Q16620); assay: Kinase panel (Millipore); format: biochemical; settings: 1 µM, ATP at Km
T12 construct: purchased Millipore (KinaseProfiler) kinase panel

[33] = molecular target: T13, TSSK1 (Homo sapiens, UniProt Q9BXA7); assay: Kinase panel (Millipore); format: biochemical; settings: 1 µM, ATP at Km
T13 construct: purchased Millipore (KinaseProfiler) kinase panel

[34] = molecular target: sst4 (h) (Homo sapiens, UniProt P31391); assay: CEREP binding assay; settings: agonist radioligand, read-out: % Inhibition of Control Specific Binding
sst4 (h), sequence (P31391 whole entry): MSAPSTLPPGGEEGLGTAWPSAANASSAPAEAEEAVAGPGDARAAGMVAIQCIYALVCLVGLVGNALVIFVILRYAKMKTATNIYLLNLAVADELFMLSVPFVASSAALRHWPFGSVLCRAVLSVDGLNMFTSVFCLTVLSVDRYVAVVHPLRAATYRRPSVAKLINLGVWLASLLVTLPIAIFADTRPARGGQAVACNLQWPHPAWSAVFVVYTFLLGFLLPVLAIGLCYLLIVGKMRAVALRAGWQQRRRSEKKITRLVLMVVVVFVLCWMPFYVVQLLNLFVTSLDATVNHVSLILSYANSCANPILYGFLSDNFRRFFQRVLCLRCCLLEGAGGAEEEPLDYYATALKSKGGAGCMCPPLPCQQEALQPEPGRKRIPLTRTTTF

[35] = molecular target: T14, SRPK2 (Homo sapiens, UniProt P78362); assay: Kinase panel (Millipore); format: biochemical; settings: 1 µM, ATP at Km
T14 construct: purchased Millipore (KinaseProfiler) kinase panel
T14 sequence (P78362 whole entry): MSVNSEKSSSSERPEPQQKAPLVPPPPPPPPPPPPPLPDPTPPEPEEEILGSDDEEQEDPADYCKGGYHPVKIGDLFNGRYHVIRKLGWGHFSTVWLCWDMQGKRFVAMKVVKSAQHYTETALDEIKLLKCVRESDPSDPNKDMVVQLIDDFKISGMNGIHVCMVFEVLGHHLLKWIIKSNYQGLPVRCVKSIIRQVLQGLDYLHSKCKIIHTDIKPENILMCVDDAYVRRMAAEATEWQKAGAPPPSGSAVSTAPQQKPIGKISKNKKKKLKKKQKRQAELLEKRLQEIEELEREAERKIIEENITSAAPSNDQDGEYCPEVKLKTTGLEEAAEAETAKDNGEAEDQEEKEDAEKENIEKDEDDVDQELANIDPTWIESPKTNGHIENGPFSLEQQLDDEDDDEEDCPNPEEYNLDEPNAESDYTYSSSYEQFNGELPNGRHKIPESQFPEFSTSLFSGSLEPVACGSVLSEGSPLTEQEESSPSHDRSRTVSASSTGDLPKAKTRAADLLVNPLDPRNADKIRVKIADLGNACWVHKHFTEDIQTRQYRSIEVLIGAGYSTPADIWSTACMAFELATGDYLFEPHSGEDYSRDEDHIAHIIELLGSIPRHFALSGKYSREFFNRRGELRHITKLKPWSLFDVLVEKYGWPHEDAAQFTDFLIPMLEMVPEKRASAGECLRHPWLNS

[36] = molecular target: PLK1 (Homo sapiens, UniProt P53350); assay: Kinase panel (Millipore); format: biochemical; settings: 1 µM, ATP at Km
[37] = molecular target: N muscle-type (h) (Homo sapiens, UniProt P02708+P07510+Q07001); assay: biochemical; settings: read-out: % Inhibition of Control Specific Binding
[38] = female, Beagle, dog, in vivo
[39] = molecular target: T15, EPHA8 (Homo sapiens, UniProt P29322); assay: Kinase panel (Millipore); format: biochemical; settings: 1 µM, ATP at Km
T15 construct: purchased Millipore (KinaseProfiler) kinase panel

[40] = molecular target: T16, LKB1 (Homo sapiens, UniProt Q15831); assay: Kinase panel (Millipore); format: biochemical; settings: 1 µM, ATP at Km
T16 construct: purchased Millipore (KinaseProfiler) kinase panel

[41] = molecular target: ZIPK (Homo sapiens, UniProt O43293); assay: Kinase panel (Millipore); format: biochemical; settings: 1 µM, ATP at Km
[42] = molecular target: CKIT(D816H) (Homo sapiens, UniProt P10721, D816H); settings: 1 µM, ATP at Km
CKIT(D816H), sequence (P10721 544-976 D816H limits assumed): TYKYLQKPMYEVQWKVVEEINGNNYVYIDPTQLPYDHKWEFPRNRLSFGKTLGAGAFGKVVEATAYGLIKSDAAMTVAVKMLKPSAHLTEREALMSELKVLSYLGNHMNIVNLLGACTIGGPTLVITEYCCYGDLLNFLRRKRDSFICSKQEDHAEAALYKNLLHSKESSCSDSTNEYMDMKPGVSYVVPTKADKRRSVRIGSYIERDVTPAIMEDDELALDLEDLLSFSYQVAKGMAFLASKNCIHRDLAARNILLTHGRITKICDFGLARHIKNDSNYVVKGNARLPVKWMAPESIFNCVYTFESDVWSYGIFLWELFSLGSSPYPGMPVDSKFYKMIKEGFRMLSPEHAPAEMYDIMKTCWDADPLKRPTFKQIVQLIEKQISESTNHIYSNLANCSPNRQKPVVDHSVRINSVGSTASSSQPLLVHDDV

[43] = molecular target: PKCALPHA (Homo sapiens, UniProt P17252); assay: Kinase panel (Millipore); format: biochemical; settings: 1 µM, ATP at Km

Cn1ncc2cc(-c3cnc(N)c(Cl)c3N3CCC4(CCNC4=O)CC3)ccc21 [Compound 109, 8-(2-Amino-3-chloro-5-(1-methyl-1H-indazol-5-yl)pyridin-4-yl)-2,8-diazaspiro[4.5]decan-1-one]
% effect [1]: -10%
inhibition at 10 µM [2]: -7%
% Inhibition of Control Specific Binding [3]: -16%
% effect [4]: 11%
% effect [5]: -3%
% effect [6]: -7%
inhibition at 10 µM [7]: -4%
% effect [8]: 5%
Vd [9]: 2 L/kg
clearance ([9]; iv): 24.8 mL/min/kg
duration of reduced STAT1 SER727 phosphorylation after the last dose [10]: more than 6 h
% Inhibition of Control Specific Binding [11]: -2%
Vd [12]: 0.63 L/kg
clearance ([12]; Cl, 0.2 mg/kg iv): 10.2 mL/min/kg
inhibition at 10 µM [13]: -10%
% effect [14]: 4%
% effect [15]: -5%
% effect [16]: 3%
% effect [17]: -1%
inhibition at 10 µM [18]: 0%
bioavailability [19]: 30%
% effect [20]: -2%
% effect [21]: 5%
% Inhibition of Control Specific Binding [22]: -1%
Vd [23]: 1.4 L/kg
clearance ([23]; iv): 17.8 mL/min/kg
% effect [24]: -21%
% effect [25]: 1%
% effect [26]: -21%
% effect [27]: 6%
% effect [28]: -25%
% effect [29]: -16%
inhibition at 10 µM [30]: 7%
% effect [31]: 5%
% effect [32]: -11%
% effect [33]: -7%
inhibition at 10 µM [34]: 9%
% effect [35]: 4%
% effect [36]: -3%
inhibition at 10 µM [37]: 11%
LBF [38]: 43%
% effect [39]: -9%
% effect [40]: 5%
% effect [41]: 6%
% effect [42]: 1%
% effect [43]: 5%
